From publication PMC9804781, “Identification of a Novel Pseudo‐Natural Product Type IV IDO1 Inhibitor Chemotype” (Angewandte Chemie (International Ed. in English), 2022)

How the values were obtained:
[1] = test system: IDO1 promoter; test: IDO1 promoter reporter gene assay in HEK293T cells; type: cell-based; conditions: IFN-γ, 48 h
Experimental: GraphPad Prism 9.0 (GraphPad Software, Inc, US) to generate dose-response curves and obtain […]
IDO1 promoter reporter gene assay
HEK293T cells (25,000 cells/well) were reverse-transfected with pXPG-IDO1[16] (4 µg/96-well plate, kindly provided by Gina M. Doody, Leeds, UK) and pRL-TK (300 ng/96-well plate, Promega, US) using Lipofectamine™ 2000 (Invitrogen, USA) pri or to incubation for 24 h. Afterwards, cells were treated with 50 ng/mL IFN-γ and the compounds for 48 h. Luminescence generated by the Fluc reporter and the control reporter Rluc was measured using the Dual-Glo ® Luciferase Assay System (Promega, US) on the Spark® Multimode Microplate Reader (Tecan, AT). To determine the IDO1 promoter activity, Fluc signals were divided by Rluc signals and normalized to the values of the DMSO control. Data analysis was performed using a non-linear regression curve fit and […]
BxPC-3 cells (30,000 cells/well) were seeded in 96-well plates in Trp-free RPMI 1640 medium and incubated for 48 h prior addition of 50 ng/mL IFN-γ. […]
The supernatant was transferred to a new plate, trichloroacetic acid was added to a final concentration of 7% (v/v) and plates were incubated for 15 min at room temperature. Samples were centrifuged for 10 min at 1800 x g and L-Trp was quantified by HPLC-MS/MS using the LTQ Velos Pro and Dionex HPLC (Thermo Fisher Scientific, US). […]

[2] = test system: IDO1 protein levels; test: IDO1 protein levels (immunoblotting, In-Cell Western); type: cell-based; conditions: immunoblotting (HeLa, IFN-γ, 24 h) and in-Cell western
Experimental: Kit (QIAGEN, DE) following the manufacturer’s procedure. DNA was removed on column by […]
DNase digestion with RNase-free DNase Set (QIAGEN, DE) according to the manufacturer’s […]
instructions. Following the manufacturer’s protocol, cDNA templates were synthesized from […]
800 ng total RNA using the QuantiTect Reverse Transcription Kit (QIAGEN, DE).
The expression levels of the IDO1 gene and the reference GAPDH were assessed by real-time […]
quantitative PCR (qPCR). Therefore, 120 ng cDNA was amplified using 500 nM of gene-specific […]
primers and SsoAdvanced Universal SYBR Green Supermix (Bio-Rad Laboratories, DE) in a total […]
volume of 10 µL for 50 cycles using the CFX96 Touch™ Real-Time PCR Detection System (Bio- […]
Rad Laboratories, DE). Relative IDO1 expression levels were calculated using the ΔΔCt method […]
with GAPDH as reference gene[17] and represented using GraphPad Prism 9.0 (GraphPad […]
and homogenized by sonication. Protein concentration was determined using the DC Protein […]
11 µM rhIDO1 was incubated with compounds at indicated concentrations for 60 min at 37°C in 50 mM potassium phosphate buffer (16.9 mM K2HPO4, 33.1 mM, KH2PO4, pH 6.5). The thermal protein stability from 20°C to 90°C (1°C/min) was measured by means of the intrinsic tryptophan/tyrosine fluorescence using the Prometheus™ NT.48 (NanoTemper® Technologies, […]

CCOC(=O)C1=CC[C@](C(=O)OC)(c2cc3ccccc3n2C)N(S(=O)(=O)c2ccc(C)cc2)[C@@H]1C(=O)OC(C)(C)C [Compound 3d]
expression of the Fluc reporter under IDO1 promoter [1]: did not reduce the expression of the reporter
level of the IDO1 protein [2]: did not alter the level of the IDO1 protein
